Laboratory results taken from article PMC10272112 (Nature Communications, 2023).

How the values were obtained:
MIER1 = assay: Chemoproteomic competition pulldown assay (HDAC interactor); format: binding; details: iQ, SW620 lysate
Description: To identify proteins directly bound by lipoic acid, we employed a chemoproteomic competition assay. Briefly, (R/S)-LA was immobilized on sepharose beads via an amidation reaction to form an affinity matrix (abbreviated as iL; Fig. 1a). This affinity matrix can be incubated with cell lysate to pull down potential LA or LM target proteins and identify these targets via bottom-up proteomics. In a competition assay, free LA or LM were incubated with lysate at different concentrations before pulling down and quantifying target proteins. […] (Fig. 1b, see “Methods” for details). […] The lysate buffer used in this assay contains 1 mM DTT to mimic the intracellular reductive milieu and to reduce lipoic acid and LM. […] Additional competition assays performed in lung adenocarcinoma cell A549 lysate also identified HDAC1, HDAC2, and HDAC6 as targets (Supplementary Fig. 1b). Amongst the three cell lines tested, HDACs were the only confidently identified targets across the 1500–3000 proteins quantified in these assays. […] We validated the results by analogous pulldown competition assays using two other affinity matrices prepared via the immobilization of either the HDAC inhibitor Quisinostat (iQ) and an analog of the class IIa HDAC inhibitor Bürli’s 31[14] (iC)[12]. We have previously shown that these affinity matrices specifically bind to the active sites of HDACs and have used them for HDACi selectivity profiling. Indeed, binding of (R/S)-LA and (R/S)-LM to HDAC1, HDAC2, HDAC3, HDAC6, and, to a lesser extent, HDAC8 was confirmed in these assays (Supplementary Fig. 1c, d). No binding to class IIa HDACs or the recently discovered common HDAC inhibitor off-target MBLAC2 was observed (Supplementary Fig. 1e)[12]. […] This observation might reflect electrostatic repulsion between the HDAC10 active site gate-keeper glutamic acid residues[15],[16] and the terminal carboxylic acid of LA.
To assess the degree of protein depletion from lysates by the affinity matrix, a second pulldown (PDPD) with fresh beads was performed using the unbound protein fraction from the vehicle control flow through. The beads were washed (1 × 1 mL of lysis buffer without inhibitors and only 0.4% Igepal, 2 × 2 mL of lysis buffer without inhibitors and only 0.2% Igepal), and captured proteins were denatured with 8 M urea buffer, alkylated with 55 mM chloroacetamide and digested with Trypsin according to standard procedures. The resulting peptides were desalted on a C18 filter plate (Sep-Pak® tC18 µElution Plate, Waters), vacuum dried, and stored at −20 °C until LC–MSMS measurement.
For the competition assays, relative binding was calculated based on the protein intensity ratio to the DMSO control for every single inhibitor concentration. EC50 values were derived from a four-parameter log-logistic regression with variable slope (constrain: bottom > 0). The obtained EC50 values were multiplied with a protein-dependent correction factor (cf), resulting in the apparent Kd value (Kd^app). The correction factor is determined by calculating the ratio of the protein intensity of two consecutive pulldowns of the vehicle control sample[13]. Targets of the inhibitors were annotated manually according to published procedures[12],[46],[47]. […] Additionally, the number of unique peptides and MSMS counts per condition were taken into account. Positive target binding across several independent experiments performed with different cell lysates further substantiated our confidence for a true positive drug-target binding event.

[1] = target: T1, HDAC6-catalytic domain 2 (HDAC6CD2) (Homo sapiens, UniProt Q9UBN7); assay: NanoBRET intracellular target engagement assay; format: cell-based
T1 construct: HDAC6-catalytic domain 2 (HDAC6CD2); expressed in transfected cells
T1 sequence (Q9UBN7 482-800 limits assumed): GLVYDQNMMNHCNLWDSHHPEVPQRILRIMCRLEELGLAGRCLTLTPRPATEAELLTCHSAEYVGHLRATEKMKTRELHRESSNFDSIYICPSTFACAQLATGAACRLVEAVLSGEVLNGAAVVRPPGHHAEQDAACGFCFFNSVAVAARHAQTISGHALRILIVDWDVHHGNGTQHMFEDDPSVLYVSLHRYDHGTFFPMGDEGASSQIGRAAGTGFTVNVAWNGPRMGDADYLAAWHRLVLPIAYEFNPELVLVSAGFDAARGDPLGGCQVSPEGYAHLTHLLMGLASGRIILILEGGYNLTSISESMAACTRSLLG
Description: For the production of transfected HeLa mono-clones stably expressing HDAC-nanoBRET fusion proteins of HDAC10 and HDAC6-catalytic domain 2 (HDAC6CD2), plasmids expressing a fusion of HDAC10 with nanoluciferase were obtained from Promega (N2170). HeLa cells (0.75 × 10^6) were seeded in a 6 cm dish and were transfected with a mix of 10 μg plasmid and 3 μL Fugene in 200 μL OptiMEM after 24 h. The intracellular target engagement assay on HDAC10 and HDAC6CD2 was performed using the NanoBRET™ Target Engagement Intracellular HDAC Assay (Promega N2081 and N2090) as described by the kit manufacturer in a 96-well plate (Corning 3600) format with 2 × 10^4 cells per well and a tracer concentration of 0.3 μM. Inhibitors were dosed with a D300e Digital Dispenser (Tecan). DMSO concentrations were normalized to 0.5% for all wells. After dosing, assay plates were shaken at 800 rpm and incubated at 37 °C for 2 h followed by measurement of 450 nm and 650 nm luminescence (80 nm bandwidth) at room temperature with a CLARIOstar (BMG Labtech) plate reader 2 min after NanoLuc substrate addition.

Row | SMILES | relative binding vs DMSO (MIER1; log10 M -3.52288) | relative binding vs DMSO (MIER1; log10 M -4) | relative binding vs DMSO (MIER1; log10 M -4.52288) | relative binding vs DMSO (MIER1; log10 M -5) | relative binding vs DMSO (MIER1; log10 M -5.52288) | relative binding vs DMSO (MIER1; log10 M -6) | relative binding vs DMSO (MIER1; log10 M -6.52288) | relative binding vs DMSO (MIER1; log10 M -7) | potency of intracellular target engagement and HDAC substrate hyperacetylation ([1]; peer review response) [µM] | intracellular binding to HDAC6 ([1]; HeLa cells) | IC50 ([1]; HeLa cells, 2 h, read-out: concentration of half maximal HDAC6 inhibition) [µM]
1 | O=C(O)CCCCC1CCSS1 (racemic) [(R/S)-LA, (R/S)-lipoic acid] | 0.1271 | 0.313 | 0.5121 | 0.4151 | 0.7821 | 0.8468 | 1.155 | 0.8632 | 50 to 300 |  | 
2 | NC(=O)CCCCC1CCSS1 (racemic) [(R/S)-LM, (R/S)-lipoamide] | 0.1808 | 0 | 0.3328 | 0.7626 | 0.9557 | 1.104 | 0.974 | 1.319 |  | dose-dependent intracellular binding | 35
